Assay results taken from US20210115087A1, “CYCLIC PEPTIDE INHIBITORS OF HEDGEHOG PROTEINS” (University of Rochester, priority 2016, published 2021).
“Also recorded” adds a separate entry of the source. One block for each compound: values may come before it. *1 amine or outer side, *2 acyl side, *3 side chain or, on linkers, in order; H or OH if unused. Where a SMILES comes first, the peptide text is derived from it. Bridges are numbered along the chain shown (N, C = ends). CH2CH2 = C(C[*:2])[*:1]

What was measured:
GST-Shh [1] = biological target: T1, GST-Shh (Homo sapiens, UniProt Q15465); experiment: KD (nM)
T1 construct: poly-histidine (N); made in house; host or cells: E. coli BL21(DE3), vector pET42b
Excerpt: Table printed on a drawing sheet, FIG. 9
Head of the field: KD (nM)
The patent's description of the figure: FIG. 9. Shh binding affinity of X5-X8-linked cyclic peptides.
First copying reader's note: The error (±) is printed in the same cell as the KD value.
Where the first naming reader finds the target: description_of_the_figure: direct binding of the selected FLAG tag-fused peptides to plate-immobilized GST-Shh
Target sequence in this assay (Q15465 24-197 limits assumed): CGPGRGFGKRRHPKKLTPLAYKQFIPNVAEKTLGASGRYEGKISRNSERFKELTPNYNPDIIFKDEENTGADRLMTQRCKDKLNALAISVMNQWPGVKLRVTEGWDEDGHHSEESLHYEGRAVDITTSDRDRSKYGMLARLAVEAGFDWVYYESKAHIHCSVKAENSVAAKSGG

GST-Shh [2] = biological target: T1, GST-Shh; experiment: Hh protein binding immunoassay: FLAG-tagged peptide on plate-immobilized GST-Shh, HRP-conjugated anti-FLAG antibody
Excerpt: As for any peptide/protein interaction, various analytical and biophysical methods can be applied to test and assess the ability of the compounds provided herein to bind to Hedgehog proteins. These methods include, but are not limited to immunoassays (e.g., ELISA), radio(immune)assays, fluorescence-based assays, colorimetric assays, and/or techniques such as surface plasmon resonance (SPR), FRET, fluorescence polarization, isothermal calorimetry, NMR, and the like. A method that can be used is a solid phase immunoassay, in which the Hedgehog protein is immobilized on a plate or test tube and then incubated with the peptide at a fixed or variable concentration. In this assay, the peptide is functionalized with a label in the form of an antibody epitope (e.g., ‘FLAG tag’ peptide sequence) or an affinity tag molecule (e.g., biotin). After washing the unbound peptide, the Hedgehog-bound peptide is detected and quantified by means of a colorimetric assay using an enzyme-conjugated antibody (e.g., horseradish peroxidase-conjugated anti-FLAG antibody) or enzyme-conjugated capture protein (e.g., horseradish peroxidase-conjugated streptavidin). […]
To measure the binding affinity of the peptides for Shh, an in vitro assay was established in which recombinant GST-fused Shh is immobilized on microtiter plates and then exposed to the FLAG-tagged peptide at varying concentrations. The Shh-bound peptide is then quantified colorimetrically (λ450) using a horseradish peroxidase (HRP)-conjugated anti-FLAG antibody. […]
Hh protein binding assay. Shh binding activity/affinity of the linear and cyclic peptides was measured using the immunoassay outlined in FIG. 4. […] After washing, 100 μL of 2.2 mM o-phenylenediamine dihydrochloride, 4.2 mM urea hydrogen peroxide, 100 mM dibasic sodium phosphate and 50 mM sodium citrate, pH 5.0 was added to each well, followed by measurement of the absorbance at 450 nm using a Tecan Infinite 1000 plate reader. […]
Target sequence in this assay (Q15465 24-462): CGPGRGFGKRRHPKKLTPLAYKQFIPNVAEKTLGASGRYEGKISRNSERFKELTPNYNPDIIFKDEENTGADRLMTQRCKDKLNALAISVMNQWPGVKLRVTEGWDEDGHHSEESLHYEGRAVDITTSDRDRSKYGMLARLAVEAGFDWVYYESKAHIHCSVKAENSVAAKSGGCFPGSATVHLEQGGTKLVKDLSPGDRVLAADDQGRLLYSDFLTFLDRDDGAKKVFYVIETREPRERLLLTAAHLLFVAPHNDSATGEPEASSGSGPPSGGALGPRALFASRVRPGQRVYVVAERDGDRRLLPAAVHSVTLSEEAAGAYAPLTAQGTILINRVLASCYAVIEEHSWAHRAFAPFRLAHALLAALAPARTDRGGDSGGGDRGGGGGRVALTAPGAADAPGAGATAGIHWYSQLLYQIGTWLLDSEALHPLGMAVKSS

[3] = system: Shh-mediated Hedgehog pathway signaling in NIH3T3 cells; experiment: Gli-reporter dual luciferase assay in Shh-N-stimulated NIH-3T3 cells; assay type: cell-based, mouse
Excerpt: The ability of the compounds provided herein to inhibit ligand-induced activation of the Hedgehog pathway in a cell can be assessed by means of a cell based assay. In an exemplary procedure, a suitable reporter plasmid is introduced in a Hedgehog responsive mammalian cell. Typically, the reporter plasmid contains a reporter gene encoding (e.g., a gene encoding for firefly luciferase) under a Gli-controlled promoter, thereby providing a reporter gene that is responsive to the activity of the Gli transcription factors. […] The reporter cells are incubated with the Hedgehog protein in the presence and in the absence of the cyclic peptide. The extent of Hedgehog pathway suppression can be determined based on relative activity of the luciferase reporter enzyme, which in turn can be determined by measuring the luminescence signal after addition of a luminogenic substrate of the luciferase enzyme.
To this end, we utilized a cell-based luciferase reporter assay, (Chen, Taipale et al. 2002) in which mouse embryo fibroblasts (NIH3T3) are transfected with vectors encoding for a Firefly luciferase (FF) gene under a Gli-controlled promoter and a Renilla luciferase (Ren) gene under a constitutive promoter. Hedgehog pathway suppression is measured based on the decrease in Firefly/Renilla luminescence ratio in the presence of the inhibitor. […] (Chen, Taipale et al. 2002)
Gli-reporter Assay. NIH-3T3 cells were passaged twice and then plated in 24-well culture dishes at 5×10^5 cells/well in DMEM containing 10% FBS and 1% penicillin/streptomycin. After 24 hours, the cells were transfected (TransIT-2020) with a mixture of a firefly luciferase reporter construct under the control of a Gli1 inducible promoter and a Renilla luciferase reporter construct under a constitutive promoter (40:1) (Cignal GLI Reporter Luciferase Kit, Qiagen). Cells were allowed to reach confluency, at which point the media was changed to Opti-MEM containing 1% FBS and added with 4 nM Shh-N(R&D Systems, Minneapolis, Minn.) in sterile PBS buffer. Synthetic HL2-lin and HL2-m5 were added at the same time at varying concentration (0.01-30 uM), and control cells were prepared by adding vehicle only (1% DMSO). Purmorphamine-treated cells were prepared by adding 5 μM purmorphamine to wells containing 10 μM HL2-m5. After growth for 24 hours at 37° C. in a humidified chamber, the cells were harvested and analyzed for Firefly and Renilla luciferase activity using a Tecan Spark-20 plate reader and a DLR kit (Promega) according to the manufacturer's instructions. Luminescence values were normalized to those of the Shh pathway activated control cells. Mean values and standard deviations were calculated from experiments performed at least in duplicate.

[4] = system: GST-Shh, GST-Ihh, and GST-Dhh; experiment: Hedgehog analog selectivity: relative binding at fixed peptide concentration; design: species or system human; conditions: peptide at fixed concentration of 0.5-1 μM, normalized to highest response
Protocol: FIG. 14. Hh analog selectivity for linear HHIP L2-derived peptide (HL2-pep) and representative cyclic peptide inhibitors. The data relative to the peptides were derived from direct binding experiments with immobilized Hedgehog proteins (i.e., GST-Shh, GST-Ihh, and GST-Dhh), biotinylated peptides (i.e., Biot-HL2-pep, Biot-HL2-m1, Biot-HL2-m2, Biot-HL2-m3, Biot-HL2-m4, Biot-HL2-m4), and HRP-conjugated streptavidin. The data relative to robotnikinin were derived from competition experiments ([…]+400 nM HL2-m5). For each compound, the response values were normalized to the highest binding response measured across the three Hedgehog analogs.
Hedgehog analog selectivity. KD values for FLAG-HL2-m5 binding to Ihh and Dhh were determined using the colorimetric immunoassay described earlier but using GST-Ihh and GST-Dhh-coated plates, respectively. The peptide relative binding affinity for the three isoforms of Hedgehog was determined using the same assay and peptide solutions at a fixed concentration of 0.5-1 μM. In this case, binding responses were subtracted against the blank (no peptide sample) and normalized to the highest value measured across the three Hh isoforms. Mean values and standard deviations were calculated from experiments performed at least in triplicate.

- Kd (GST-Shh [1]): 560 ± 5 nM
Compound: CSCC[C@H](N)C(=O)N[C@@H](CC(=O)O)C(=O)N[C@@H](Cc1ccc(O)cc1)C(=O)N[C@@H](CCCCN)C(=O)N[C@@H](CC(=O)O)C(=O)N[C@@H](CC(=O)O)C(=O)N[C@@H](CC(=O)O)C(=O)N[C@@H](CC(=O)O)C(=O)N[C@@H](CCCCN)C(=O)NCC(=O)N[C@@H](CO)C(=O)NCC(=O)N[C@@H](CO)C(=O)N[C@H](C(=O)N[C@H](C(=O)N[C@@H](CO)C(=O)N[C@@H](CC(=O)O)C(=O)NCC(=O)N[C@@H](CCC(=O)O)C(=O)N[C@@H](CCC(=O)O)C(=O)N[C@H]1Cc2ccc(cc2)OCCSC[C@@H](C(=O)N[C@@H](CC(C)C)C(=O)N[C@@H](CC(=O)O)C(=O)O)NC(=O)CNC(=O)[C@H](CC(=O)O)NC1=O)C(C)C)[C@@H](C)O [FLAG-HL2-2m1.1] (H-MDYKDDDDKGSGSTVSDGEEYDGCLD-OH; linker 21-24 via CH2CH2; N-terminus assumed)

- Kd (GST-Shh [1]): 850 ± 20 nM
Compound: CSCC[C@H](N)C(=O)N[C@@H](CC(=O)O)C(=O)N[C@@H](Cc1ccc(O)cc1)C(=O)N[C@@H](CCCCN)C(=O)N[C@@H](CC(=O)O)C(=O)N[C@@H](CC(=O)O)C(=O)N[C@@H](CC(=O)O)C(=O)N[C@@H](CC(=O)O)C(=O)N[C@@H](CCCCN)C(=O)NCC(=O)N[C@@H](CO)C(=O)NCC(=O)N[C@@H](CO)C(=O)N[C@H](C(=O)N[C@@H](CCCNC(=N)N)C(=O)NCC(=O)N[C@@H](CC(=O)O)C(=O)NCC(=O)N[C@@H](CCC(=O)O)C(=O)N[C@@H](CCC(=O)O)C(=O)N[C@H]1Cc2ccc(cc2)OCCSC[C@@H](C(=O)N[C@H](C(=O)N[C@@H](CC(=O)O)C(=O)O)C(C)C)NC(=O)CNC(=O)[C@H](CC(=O)O)NC1=O)[C@@H](C)O [FLAG-HL2-2m1.2] (H-MDYKDDDDKGSGSTRGDGEEYDGCVD-OH; linker 21-24 via CH2CH2; N-terminus assumed)

Compound: CSCC[C@@H]1NC(=O)[C@H](CCC(=O)O)NC(=O)[C@H](CCC(=O)O)NC(=O)[C@@H](NC(=O)[C@H](CC(=O)O)NC(=O)[C@H](CC(=O)O)NC(=O)[C@H](CC(C)C)NC(=O)[C@@H](NC(=O)[C@H](CO)NC(=O)CNC(=O)[C@H](CO)NC(=O)CNC(=O)[C@H](CCCCN)NC(=O)[C@H](CC(=O)O)NC(=O)[C@H](CC(=O)O)NC(=O)[C@H](CC(=O)O)NC(=O)[C@H](CC(=O)O)NC(=O)[C@H](CCCCN)NC(=O)[C@H](Cc2ccc(O)cc2)NC(=O)[C@H](CC(=O)O)NC(=O)[C@@H](N)CCSC)[C@@H](C)O)Cc2ccc(cc2)OCCSC[C@@H](C(=O)N[C@@H](CO)C(=O)N[C@@H](CC(=O)O)C(=O)O)NC(=O)CNC(=O)[C@H](CC(=O)O)NC1=O [FLAG-HL2-m1] (H-MDYKDDDDKGSGSTLDDYEEMDGCSD-OH; linker 18-24 via CH2CH2; N-terminus assumed)
- increase in Shh binding affinity compared to FLAG-HL2-m1 (GST-Shh [2]; ratio of KD values): 11 fold

Compound: CSCC[C@@H]1NC(=O)[C@H](C)NC(=O)[C@H](CCC(=O)O)NC(=O)[C@@H](NC(=O)[C@H](Cc2c[nH]c3ccccc23)NC(=O)[C@H](CO)NC(=O)[C@H](CC(C)C)NC(=O)[C@@H](NC(=O)[C@H](CO)NC(=O)CNC(=O)[C@H](CO)NC(=O)CNC(=O)[C@H](CCCCN)NC(=O)[C@H](CC(=O)O)NC(=O)[C@H](CC(=O)O)NC(=O)[C@H](CC(=O)O)NC(=O)[C@H](CC(=O)O)NC(=O)[C@H](CCCCN)NC(=O)[C@H](Cc2ccc(O)cc2)NC(=O)[C@H](CC(=O)O)NC(=O)[C@@H](N)CCSC)[C@@H](C)O)Cc2ccc(cc2)OCCSC[C@@H](C(=O)N[C@H](C(=O)N[C@@H](CC(=O)O)C(=O)O)[C@@H](C)O)NC(=O)[C@H](CCSC)NC(=O)[C@H](CC(=O)O)NC1=O [FLAG-HL2-m5] (H-MDYKDDDDKGSGSTLSWYEAMDMCTD-OH; linker 18-24 via CH2CH2)
- Kd (GST-Shh [2]): 170 nM
- higher binding affinity for Shh compared to the linear L2-derived peptide (FLAG-HL2-pep) (GST-Shh [2]; ratio of KD values): ~120 fold

Compound: CC1=C2C[C@H]3[C@@H](CC=C4C[C@@H](O)CC[C@@]43C)[C@@H]2CC[C@]12O[C@@H]1C[C@H](C)CN[C@H]1[C@H]2C [cyclopamine]
- inhibition of Shh-induced luminescence ([3]; concentration of 10 μM): full inhibition

Compound: c1ccc2c(Oc3nc(Nc4ccc(N5CCOCC5)cc4)c4ncn(C5CCCCC5)c4n3)cccc2c1 [purmorphamine]
- effect of Smo agonist on pathway signaling in HL-m5-treated cells ([3]; 5 μM purmorphamine added to 10 μM HL2-m5): restored activation of the signaling pathway

Compound: HL2-pep: linear peptide derived from the HHIP L2 loop (TLDDMEEMDGLSD)
- inhibitory activity on Hedgehog pathway signaling (in words) ([3]; concentrations up to 30 μM, Shh-N-stimulated cells): no inhibitory activity; also recorded: unable to suppress signaling
- Hedgehog analog selectivity profile [4]: Dhh>Shh≈Ihh
